Where a name gives a salt, the structure may show the parent alone.
Molecular target: PAI-1 (Homo sapiens, UniProt P05121)
Test: biochemical
Type: biochemical
Conditions: for IC50: PAI chromogenic substrate assay
Experimental: The present compounds have been tested in a PAI functional assay. In this assay, a compound is incubated with PAI-1 prior to addition to the tPA assay system. Inhibition of PAI-1 results in the production of plasmin from plasminogen. In turn, plasmin cleaves the chromogenic substrate S2251 (Kabi Vitrum) producing pNA (p-nitroaniline) which is detected spectrophotometrically at 405 nm (K. Nilsson et al, Fibrinolysis (1987) 1, 163-168).
The present compounds were tested in a PAI chromogenic substrate assay. In the assay (K. Nilsson, Fibrinolysis (1987) 1, 163-168) each compound was incubated with PAI-1 prior to addition to the tPA assay system. […] In turn, the plasmin cleaved the chromogenic substrate S2251 (Kabi-Vitrum) producing pNA (p-nitroaniline) which was detected spectrophotometrically at 405 nm.
The degrees of inhibition observed in the chromogenic substrate assay at various concentrations, or the IC50 values, for each compound are presented in Table 1.

Sequence of PAI-1 (P05121 24-402): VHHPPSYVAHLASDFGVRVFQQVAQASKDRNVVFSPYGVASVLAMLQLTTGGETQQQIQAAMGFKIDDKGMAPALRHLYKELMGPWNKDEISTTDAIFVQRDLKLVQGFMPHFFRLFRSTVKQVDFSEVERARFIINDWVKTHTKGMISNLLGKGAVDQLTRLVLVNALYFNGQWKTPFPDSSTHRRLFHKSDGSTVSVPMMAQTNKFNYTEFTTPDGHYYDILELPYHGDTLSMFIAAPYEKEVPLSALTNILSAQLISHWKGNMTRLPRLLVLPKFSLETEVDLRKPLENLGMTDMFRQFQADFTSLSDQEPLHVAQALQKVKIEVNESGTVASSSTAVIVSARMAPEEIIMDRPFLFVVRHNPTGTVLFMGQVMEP

| Compound | IC50 [µM] | % Inhibition (20 μm) [%] | % Inhibition (5 μm) [%] |
| --- | --- | --- | --- |
| CN(C)CCSc1ccc(/C=c2\[nH]c(=O)/c(=C/c3ccccc3Br)[nH]c2=O)s1 [Compound 5313.HCl, (3Z,6Z)-6-(2-Bromobenzylidene)-3-(5-(2-dimethylaminoethylthio)-2-thienyl)methylene-2,5-piperazinedione] | 20 |  |  |
| COc1cccc(/C=c2\[nH]c(=O)/c(=C/c3ccc(SCCN(C)C)s3)[nH]c2=O)c1 [Compound 5314, (3Z,6Z)-3-(5-(2-Dimethylaminoethylthio)-2-thienyl)methylene-6-(3-methoxybenzylidene)-2,5-piperazinedione] | 3.5 |  |  |
| COc1cccc(/C=c2\[nH]c(=O)/c(=C/c3ccc(SCCN(C)C)s3)[nH]c2=O)c1 [Compound 5314.HCl, (3Z,6Z)-3-(5-(2-Dimethylaminoethylthio)-2-thienyl)methylene-6-(3-methoxybenzylidene)-2,5-piperazinedione] | 9.5 |  |  |
| CN(C)CCSc1ccc(/C=c2\[nH]c(=O)/c(=C/c3cccc(C(F)(F)F)c3)[nH]c2=O)s1 [Compound 5315, (3Z,6Z)-3-(5-(2-Dimethylaminoethylthio)-2-thienyl)methylene-6-(3-trifluoromethylbenzylidene)-2,5-piperazinedione] | 20 |  |  |
| CN(C)CCSc1ccc(/C=c2\[nH]c(=O)/c(=C/c3cccc(C(F)(F)F)c3)[nH]c2=O)s1 [Compound 5315.HCl, (3Z,6Z)-3-(5-(2-Dimethylaminoethylthio)-2-thienyl)methylene-6-(3-trifluoromethylbenzylidene)-2,5-piperazinedione] |  | 10 |  |
| CN(C)CCSc1ccc(/C=c2\[nH]c(=O)/c(=C/c3cccc([N+](=O)[O-])c3)[nH]c2=O)s1 [Compound 5316, (3Z,6Z)-3-(5-(2-Dimethylaminoethylthio)-2-thienyl)methylene-6-(3-nitrobenzylidene)-2,5-piperazinedione] |  | 10 |  |
| CC(C)N(CCSc1ccc(/C=c2\[nH]c(=O)/c(=C/c3ccccc3)[nH]c2=O)s1)C(C)C [Compound 5399, (3Z,6Z)-6-Benzylidene-3-(5-(2-diisopropylaminoethylthio)-2-thienyl)methylene-2,5-piperazinedione] |  | 43 | 23 |
| CC(C)N(CCSc1ccc(/C=c2\[nH]c(=O)/c(=C/c3ccccc3)[nH]c2=O)s1)C(C)C [Compound 5399.HCl, (3Z,6Z)-6-Benzylidene-3-(5-(2-diisopropylaminoethylthio)-2-thienyl)methylene-2,5-piperazinedione] |  | 31 | 18 |
| CN(C)CCSc1ccc(/C=c2\[nH]c(=O)/c(=C/c3ccccc3)[nH]c2=O)cc1[N+](=O)[O-] [Compound 5400, (3Z,6Z)-6-Benzylidene-3-(4-(2-dimethylaminoethylthio)-3-nitrobenzylidene)-2,5-piperazinedione] | 4.5 | 60 | 61 |
| CN(C)CCSc1sc(/C=c2\[nH]c(=O)/c(=C/c3ccccc3)[nH]c2=O)cc1[N+](=O)[O-] [Compound 5403, (3Z,6Z)-6-Benzylidene-3-(5-(2-dimethylaminoethylthio)-4-nitro-2-thienyl)methylene-2,5-piperazinedione] | 20 | 52 | 26 |
| CN(C)CCSc1sc(/C=c2\[nH]c(=O)/c(=C/c3ccccc3)[nH]c2=O)cc1[N+](=O)[O-] [Compound 5403.HCl, (3Z,6Z)-6-Benzylidene-3-(5-(2-dimethylaminoethylthio)-4-nitro-2-thienyl)methylene-2,5-piperazinedione] |  | 60 | 12 |
| CN(C)CCSc1ccc(/C=c2\[nH]c(=O)/c(=C/c3cccc([N+](=O)[O-])c3)[nH]c2=O)cc1 [Compound 5422, (3Z,6Z)-6-(4-(2-Dimethylaminoethylthio)benzylidene)-3-(3-nitrobenzylidene)-2,5-piperazinedione] |  | 21 | 3 |
| CN(C)CCSc1ccc(/C=c2\[nH]c(=O)/c(=C/c3cccc([N+](=O)[O-])c3)[nH]c2=O)cc1 [Compound 5422.HCl, (3Z,6Z)-6-(4-(2-Dimethylaminoethylthio)benzylidene)-3-(3-nitrobenzylidene)-2,5-piperazinedione] |  | 28 | 5 |
| CN(C)CCSc1ccc(/C=c2\[nH]c(=O)/c(=C/c3cccc(C(F)(F)F)c3)[nH]c2=O)cc1 [Compound 5423, (3Z,6Z)-6-(4-(2-Dimethylaminoethylthio)benzylidene)-3-(3-trifluoromethylbenzylidene)-2,5-piperazinedione] |  | 11 |  |
| CN(C)CCSc1ccc(/C=c2\[nH]c(=O)/c(=C/c3cccc(C(F)(F)F)c3)[nH]c2=O)cc1 [Compound 5423.HCl, (3Z,6Z)-6-(4-(2-Dimethylaminoethylthio)benzylidene)-3-(3-trifluoromethylbenzylidene)-2,5-piperazinedione] | 20 | 35 | 2 |
| CN(C)CCSc1ccc(/C=c2\[nH]c(=O)/c(=C/c3ccc(N(C)C)cc3)[nH]c2=O)cc1 [Compound 5424, (3Z,6Z)-3-(4-Dimethylaminobenzylidene)-6-(4-(2-dimethylaminoethylthio)benzylidene)-2,5-piperazinedione] | 13.7 | 23 | 6 |
| CN(C)CCSc1ccc(/C=c2\[nH]c(=O)/c(=C/c3ccc(N(C)C)cc3)[nH]c2=O)cc1 [Compound 5424.HCl, (3Z,6Z)-3-(4-Dimethylaminobenzylidene)-6-(4-(2-dimethylaminoethylthio)benzylidene)-2,5-piperazinedione] | 15.7 | 45 | 8 |
| COc1cccc(/C=c2\[nH]c(=O)/c(=C/c3ccc(SCCN(C)C)cc3)[nH]c2=O)c1 [Compound 5438, (3Z,6Z)-6-(4-(2-Dimethylaminoethylthio)benzylidene)-3-(3-methoxybenzylidene)-2,5-piperazinedione] |  | 18 |  |
| COc1cccc(/C=c2\[nH]c(=O)/c(=C/c3ccc(SCCN(C)C)cc3)[nH]c2=O)c1 [Compound 5438.HCl, (3Z,6Z)-6-(4-(2-Dimethylaminoethylthio)benzylidene)-3-(3-methoxybenzylidene)-2,5-piperazinedione] |  |  | 3 |

Other lines, results leading:

| IC50 [µM] | % Inhibition (20 μm) [%] | % Inhibition (5 μm) [%] | Compound |
| --- | --- | --- | --- |
| 3.7 | 57 | 37 | CN(C)CCSc1ccc(/C=c2\[nH]c(=O)/c(=C/c3cccc(Br)c3)[nH]c2=O)cc1 [Compound 5425, (3Z,6Z)-3-(3-Bromobenzylidene)-6-(4-(2-dimethylaminoethylthio)benzylidene)-2,5-piperazinedione] |
| 2.2 | 47 | 56 | CN(C)CCSc1ccc(/C=c2\[nH]c(=O)/c(=C/c3cccc(Br)c3)[nH]c2=O)cc1 [Compound 5425.HCl, (3Z,6Z)-3-(3-Bromobenzylidene)-6-(4-(2-dimethylaminoethylthio)benzylidene)-2,5-piperazinedione] |
| 5.7 | 52 | 25 | CSc1ccc(/C=c2\[nH]c(=O)/c(=C/c3ccc(SCCN(C)C)cc3)[nH]c2=O)cc1 [Compound 5426, (3Z,6Z)-3-(4-(2-Dimethylaminoethylthio)benzylidene)-6-(4-methylthiobenzyidene)-2,5-piperazinedione] |
| 5.4 | 55 | 35 | CSc1ccc(/C=c2\[nH]c(=O)/c(=C/c3ccc(SCCN(C)C)cc3)[nH]c2=O)cc1 [Compound 5426.HCl, (3Z,6Z)-3-(4-(2-Dimethylaminoethylthio)benzylidene)-6-(4-methylthiobenzyidene)-2,5-piperazinedione] |
| 20 | 41 | 8 | CN(C)CCSc1ccc(/C=c2\[nH]c(=O)/c(=C/c3ccc(Cl)cc3)[nH]c2=O)cc1 [Compound 5437, (3Z,6Z)-3-(4-Chlorobenzylidene)-6-(4-(2-dimethylaminoethylthio)benzylidene)-2,5-piperazinedione] |
| 16.5 | 44 | 18 | CN(C)CCSc1ccc(/C=c2\[nH]c(=O)/c(=C/c3ccc(Cl)cc3)[nH]c2=O)cc1 [Compound 5437.HCl, (3Z,6Z)-3-(4-Chlorobenzylidene)-6-(4-(2-dimethylaminoethylthio)benzylidene)-2,5-piperazinedione] |
| 15 | 46 | 5 | Cc1cccc(/C=c2\[nH]c(=O)/c(=C/c3ccc(SCCN(C)C)cc3)[nH]c2=O)c1 [Compound 5439, (3Z,6Z)-6-(4-(2-Dimethylaminoethylthio)benzylidene)-3-(3-methylbenzylidene)-2,5-piperazinedione] |
| 17 | 35 | 6 | Cc1cccc(/C=c2\[nH]c(=O)/c(=C/c3ccc(SCCN(C)C)cc3)[nH]c2=O)c1 [Compound 5439.HCl, (3Z,6Z)-6-(4-(2-Dimethylaminoethylthio)benzylidene)-3-(3-methylbenzylidene)-2,5-piperazinedione] |
|  | 30 | 11 | CN(C)CCSc1ccc(/C=c2\[nH]c(=O)/c(=C/c3ccc(C(C)(C)C)cc3)[nH]c2=O)cc1 [Compound 5440, (3Z,6Z)-3-(4-(2-Dimethylaminoethylthio)benzylidene)-6-(4-tert-butylbenzylidene)-2,5-piperazinedione] |

Reference: US5750530A, “Pharmaceutical diketopiperazine compounds” (Xenova Limited, priority 1994, dated 1998)
